Assay results: US6737383B1, “Herbicidal oxadiazolidines” (priority 1999, dated 2004)

Experiments:
bamyardgrass = test: Test B flood test barnyardgrass; type: in vivo, Echinochloa crus-galli
Outline: (§1)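 Each value is a visual injury score relative to controls, with 10 meaning complete control and 0 no effect. Evaluation took place twelve to sixteen days after the 2-leaf-stage plants were treated and kept in the greenhouse.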

soybean = test: Test B pre/postemergence soybean; type: in vivo, Glycine max
Outline: (§2)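 Herbicidal effect was estimated by eye on a ten-point control scale after plants spent twelve to sixteen days in a greenhouse following soil or foliar treatment. Foliar sprays targeted plants at one to four leaves; all doses were formulated in a non-phytotoxic solvent with surfactant.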

wild oat = test: Test B pre/postemergence wild oat; type: in vivo, Avena fatua
Outline: as §2

bedstraw = test: Test B pre/postemergence bedstraw; type: in vivo, Galium aparine
Outline: as §2

cocklebur = test: Test B pre/postemergence cocklebur; type: in vivo, Xanthium strumarium
Outline: as §2

duck salad = test: Test B flood test duck salad; type: in vivo, Heteranthera limosa
Outline: as §1

crabgrass = test: Test B pre/postemergence crabgrass; type: in vivo, Digitaria sanguinalis
Outline: as §2

corn = test: Test B pre/postemergence corn; type: in vivo, Zea mays
Outline: as §2

velvetleaf = test: Test B pre/postemergence velvetleaf; type: in vivo, Abutilon theophrasti
Outline: as §2

sugar beet = test: Test B pre/postemergence sugar beet; type: in vivo, Beta vulgaris
Outline: as §2

smallflower flatsedge = test: Test B flood test smallflower flatsedge; type: in vivo, Cyperus difformis
Outline: as §1

wheat = test: Test B pre/postemergence wheat; type: in vivo, Triticum aestivum
Outline: as §2

surinam grass = test: Test B pre/postemergence surinam grass; type: in vivo, Brachiaria decumbens
Outline: as §2

rice = test: Test B flood test rice; type: in vivo, Oryza sativa
Outline: as §1

purple nutsedge = test: Test B pre/postemergence purple nutsedge; type: in vivo, Cyperus rotundus
Outline: as §2

blackgrass = test: Test B pre/postemergence blackgrass; type: in vivo, Alopecurus myosuroides
Outline: as §2

[1] = Rate 62 g/ha, headed Pre-emergence (flood test species), scale 0 to 10 (0 no effect, 10 complete control)
[2] = Rate 125 g/ha, Pre-emergence, flood test species, scale 0 to 10 where 0 is no effect and 10 is complete control
[3] = Rate 250 g/ha, Pre-emergence, flood-test species, scale 0 to 10, 0 is no effect, 10 is complete control
[4] = Rate 500 g/ha, Pre-emergence, flood test species, scale 0 to 10 (0 no effect, 10 complete control)
[5] = Preemergence, Rate 62 g/ha, scale of 0 to 10 where 0 is no effect and 10 is complete control
[6] = Preemergence, Rate 250 g/ha, scale of 0 to 10 where 0 is no effect and 10 is complete control
[7] = Preemergence, Rate 500 g/ha, scale of 0 to 10 where 0 is no effect and 10 is complete control
[8] = Rate 62 g/ha, Postemergence, scale 0 to 10 (0 no effect, 10 complete control)
[9] = Rate 125 g/ha, Postemergence, scale of 0 to 10 where 0 is no effect and 10 is complete control
[10] = Rate 250 g/ha, Postemergence, scale of 0 to 10 where 0 is no effect and 10 is complete control
[11] = Rate 500 g/ha, Postemergence, scale 0 to 10, 0 no effect, 10 complete control

CC(C)N(C(=O)n1oc(=O)n(Cc2nnsc2Cl)c1=O)c1ccc(F)cc1F [Compound 320]
Barnyardgrass plant response rating (bamyardgrass; [1]): 0 | Barnyardgrass plant response rating (bamyardgrass; [2]): 0 | Barnyardgrass plant response rating (bamyardgrass; [3]): 0 | Barnyardgrass plant response rating (bamyardgrass; [4]): 0 | Soybean plant response rating (soybean; [5]): 0 | Soybean plant response rating (0 to 10 scale) (soybean; Preemergence, Rate 125 g/ha): 0 | Soybean plant response rating (soybean; [6]): 0 | Soybean plant response rating (soybean; [7]): 0 | Soybean plant response rating (soybean; [8]): 2 | Soybean plant response rating (soybean; [9]): 3 | Plant response rating, Soybean (soybean; [10]): 3 | Wild oats plant response rating (wild oat; [5]): 0 | Wild oats plant response rating (0 to 10 scale) (wild oat; Preemergence, Rate 125 g/ha): 0 | Wild oats plant response rating (wild oat; [6]): 0 | Wild oats plant response rating (wild oat; [7]): 0 | Wild oats plant response rating (wild oat; [8]): 0 | Wild oats plant response rating (wild oat; [9]): 0 | Plant response rating, Wild oats (wild oat; [10]): 0 | Bedstraw plant response rating (bedstraw; [5]): 0 | Bedstraw plant response rating (bedstraw; [7]): 0 | Bedstraw plant response rating (bedstraw; [8]): 0 | Bedstraw plant response rating (bedstraw; [9]): 0 | Cocklebur plant response rating (cocklebur; [5]): 0 | Cocklebur plant response rating (0 to 10 scale) (cocklebur; Preemergence, Rate 125 g/ha): 0 | Cocklebur plant response rating (cocklebur; [7]): 0 | Cocklebur plant response rating (cocklebur; [8]): 0 | Cocklebur plant response rating (cocklebur; [9]): 0 | Plant response rating, Cocklebur (cocklebur; [10]): 0 | Cocklebur plant response rating (cocklebur; [11]): 0 | Ducksalad plant response rating (duck salad; [1]): 0 | Ducksalad plant response rating (duck salad; [2]): 0 | Ducksalad plant response rating (duck salad; [3]): 0 | Ducksalad plant response rating (duck salad; [4]): 0 | Crabgrass plant response rating (crabgrass; [5]): 2 | Crabgrass plant response rating (0 to 10 scale) (crabgrass; Preemergence, Rate 125 g/ha): 3 | Crabgrass plant response rating (crabgrass; [6]): 3 | Crabgrass plant response rating (crabgrass; [7]): 7 | Crabgrass plant response rating (crabgrass; [8]): 0 | Crabgrass plant response rating (crabgrass; [9]): 0 | Plant response rating, Crabgrass (crabgrass; [10]): 0 | Corn plant response rating (corn; [5]): 0 | Corn plant response rating (0 to 10 scale) (corn; Preemergence, Rate 125 g/ha): 0 | Corn plant response rating (corn; [6]): 0 | Corn plant response rating (corn; [7]): 0 | Corn plant response rating (corn; [8]): 0 | Corn plant response rating (corn; [9]): 0 | Plant response rating, Corn (corn; [10]): 0 | Corn plant response rating (corn; [11]): 0 | Velvetleaf plant response rating (velvetleaf; [5]): 0 | Velvetleaf plant response rating (0 to 10 scale) (velvetleaf; Preemergence, Rate 125 g/ha): 0 | Velvetleaf plant response rating (velvetleaf; [6]): 0 | Velvetleaf plant response rating (velvetleaf; [7]): 0 | Velvetleaf plant response rating (velvetleaf; [8]): 0 | Velvetleaf plant response rating (velvetleaf; [9]): 0 | Plant response rating, Velvetleaf (velvetleaf; [10]): 0 | Sugarbeets plant response rating (sugar beet; [5]): 0 | Sugarbeets plant response rating (0 to 10 scale) (sugar beet; Preemergence, Rate 125 g/ha): 0 | Sugarbeets plant response rating (sugar beet; [6]): 0 | Sugarbeets plant response rating (sugar beet; [7]): 0 | Sugarbeets plant response rating (sugar beet; [8]): 0 | Sugarbeets plant response rating (sugar beet; [9]): 2 | Plant response rating, Sugarbeets (sugar beet; [10]): 2 | S. Flatsedge plant response rating (smallflower flatsedge; [1]): 0 | S. Flatsedge plant response rating (smallflower flatsedge; [2]): 0 | S. Flatsedge plant response rating (smallflower flatsedge; [3]): 0 | S. Flatsedge plant response rating (smallflower flatsedge; [4]): 0 | Wheat plant response rating (wheat; [5]): 0 | Wheat plant response rating (0 to 10 scale) (wheat; Preemergence, Rate 125 g/ha): 0 | Wheat plant response rating (wheat; [6]): 0 | Wheat plant response rating (wheat; [7]): 0 | Wheat plant response rating (wheat; [8]): 0 | Wheat plant response rating (wheat; [9]): 0 | Plant response rating, Wheat (wheat; [10]): 0 | B. signalgrass plant response rating (surinam grass; [5]): 0 | B. signalgrass plant response rating (0 to 10 scale, 0 is no effect, 10 is complete control) (surinam grass; Preemergence, Rate 125 g/ha): 1 | B. signalgrass plant response rating (surinam grass; [6]): 2 | B. signalgrass plant response rating (surinam grass; [7]): 3 | B. signalgrass plant response rating (surinam grass; [8]): 0 | B. signalgrass plant response rating (surinam grass; [9]): 0 | Plant response rating, B. signalgrass (surinam grass; [10]): 0 | B. signalgrass plant response rating (surinam grass; [11]): 0 | Rice plant response rating (rice; [1]): 0 | Rice plant response rating (rice; [2]): 0 | Rice plant response rating (rice; [3]): 0 | Rice plant response rating (rice; [4]): 0 | Nutsedge plant response rating (purple nutsedge; [5]): 0 | Nutsedge plant response rating (0 to 10 scale) (purple nutsedge; Preemergence, Rate 125 g/ha): 0 | Nutsedge plant response rating (purple nutsedge; [6]): 0 | Nutsedge plant response rating (purple nutsedge; [7]): 0 | Nutsedge plant response rating (purple nutsedge; [8]): 0 | Nutsedge plant response rating (purple nutsedge; [9]): 0 | Plant response rating, Nutsedge (purple nutsedge; [10]): 0 | Blackgrass plant response rating (blackgrass; [5]): 0 | Blackgrass plant response rating (0 to 10 scale) (blackgrass; Preemergence, Rate 125 g/ha): 2 | Blackgrass plant response rating (blackgrass; [6]): 5 | Blackgrass plant response rating (blackgrass; [7]): 6 | Blackgrass plant response rating (blackgrass; [8]): 0 | Blackgrass plant response rating (blackgrass; [9]): 0 | Plant response rating, Blackgrass (blackgrass; [10]): 0 | Blackgrass plant response rating (blackgrass; [11]): 0
